Reference: patent publication US12251444B2, “Compositions and methods for delivering an agent to a wound” (priority 2009, dated 2025)

How the values were obtained:
[1] = Amikacin and vancomycin elution from sterilized chitosan films; assay type: physicochemical; conditions: films soaked in 5 mg/ml antibiotic 2 minutes, 50 ml sterile saline, refreshed
Method: Agent elution from chitosan films was also analyzed (FIG. 1C). Sterilized chitosan films were loaded with amikacin and vancomycin. […] The elution was done in 50 ml of sterile saline solution and completely refreshed at each time point. The elution was carried out for 3 days. The values shown in FIG. 1C are expressed in μg/ml.
Elution data from chitosan films is provided at Table 4. […] The elution was done in 50 ml of sterile saline solution and completely refreshed at each time point. The elution was carried out for 3 days. The values shown on the graph are in μg/ml.
In one approach, samples were submerged into 15 ml amikacin solution (5 mg/ml) and allowed to hydrate for 2 minutes. Samples were then subjected to elution tests by submerging the films in 50 ml of 1× Phosphate Buffered Saline (PBS) and agitated in a 37 C incubator for the duration of the study. One ml aliquots were removed at 1, 3, 6, 24, 48, and 72 hours. Aliquots were tested for antibiotic concentration using a fluorescence polarization immunoassay technique (TDxFLx, Abbott Labs, Abbott Park, IL).

[2] = Antibiotic elution from sponge fragments retrieved from goats; assay type: physicochemical, goat
Description: Sponge fragments remained in 8 of the 10 goats treated with chitosan sponges.

[3] = Antibiotic elution from sterilized chitosan sponges in PBS (TDx); assay type: physicochemical; conditions: for effect of a co-loaded antibiotic on release from chitosan sponge: sponges hydrated with 5 mg/ml single or combined antibiotics, 20 ml PBS
Method: In a preferred approach adopted for use in the goat wound treatment model described in Example 2, 2.5 grams of chitosan was dissolved in 247.5 ml of 1 (v/v) % blended acid solvent. The mixture contained 75%/25% lactic to acetic acid. This mixture was stirred for 4-6 hours at maximum allowable speed on a stir plate. The chitosan solution was filtered to remove undissolved chitosan. 25 ml of chitosan solution was pipetted into small aluminum weigh dishes ([…]). Each dish was frozen at […] freezer for 1 hour. The frozen samples were then placed into a freeze-dryer and lyophilize for 48 hours. Sponge samples were neutralized in 0.175 M NaOH— solution for ˜30-40 seconds. The sponges were rinsed repeatedly in containers filled with distilled water and pH changes were monitored until the rinsing water was neutral in pH. The re-hydrated sponges were then incubated at −80 C freezer for 1 hour and re-lyophilized for 24-48 hours. The sponges were then sterilized using low-dose gamma irradiation at Wright Medical (25-32 kGy).
Sponges were subjected to elution tests by submerging hydrated sponges into 20 ml of 1× Phosphate Buffered Saline (PBS), kept in a 37° C. incubator for the duration of the study. […] One ml aliquots were taken at 1, 3, 6, 24, 48, and 72 hours. Aliquots were tested for antibiotic concentration using a fluorescence polarization immunoassay technique (TDx, Abbott Labs, Abbott Park, IL).

in vivo = conditions: goat
Pseudomonas aeruginosa = assay: Turbidity/growth assay of sponge elution samples against Pseudomonas aeruginosa; assay type: cell-based; conditions: eluate of amikacin-loaded 61/71 DDA chitosan sponge
Method: To determine whether agents eluted from the sponges could be used to inhibit bacterial growth, zone of inhibition (ZOI) studies were carried out (FIGS. 3A-3D). Chitosan sponges loaded with a single antibiotic or combinations of antibiotics, as above, were analyzed for their ability to inhibit bacterial growth. For the assays to determine inhibition of bacterial growth, the bacterial strains Pseudomonas aeruginosa and Staphylococcus aureus were used. Results showing the inhibition of Pseudomonas aeruginosa and Staphylococcus aureus are shown at Tables 2 and 3, respectively.
Drug activity of the aliquots was tested using a turbidity assay. Two different strains of bacteria were used in this study. Vancomycin samples were tested against Staphylococcus aureus and amikacin samples were tested against both Staphylococcus aureus and Pseudomonas aeruginosa. 200 μl of each aliquot was added to 1.8 ml of Mueller-Hinton II broth combined with 20 μl of S. aureus inoculum. Amikacin samples (200 μl) were also added to 1.75 ml of trypticase soy broth (TSB) and 50 μl of P. aeruginosa inoculum. Samples were incubated for 24 hours at 37 C. Absorbance measurements were recorded after incubation at a wavelength of 530 nm (A530).
Drug activity of the aliquots was tested using a turbidity assay. Samples were tested against Pseudomonas aeruginosa. […] Absorbance measurements at 530 nm on a spectrophotometer (BioTek).

[4] = test system: S. aureus (Cowan I strain); assay: Turbidity assay of film eluates against S. aureus; assay type: cell-based, Staphylococcus aureus; conditions: 48 and 72 hr eluate samples from chitosan films
Method: In other studies, antibiotic activity against S. aureus (Cowan I strain) was determined by utilizing the remaining antibiotic elution samples, in triplicate, in a turbidity assay. In this turbidity study, solution clarity after sufficient bacterial incubation with antibiotic eluates indicated bacterial inhibition due to antibiotic activity.
Blanks containing neither S aureus nor eluate samples, positive controls containing S aureus without antibiotic eluates, and negative controls containing both S aureus and high concentration antibiotic standards were mixed and incubated at 37° C. along with the eluate samples. After 24 hours of incubation, the tubes were vortexed and the absorbance at 530 nm of each inoculum solution was recorded using a spectrophotometer.

[5] = 5 mg/ml solution (sponge loading)

| SMILES | elution from sterilized chitosan films ([1]; 1 hour) | elution from sterilized chitosan films ([1]; 3 hours) | elution from sterilized chitosan films ([1]; 6 hours) | elution from sterilized chitosan films ([1]; 24 hours) | elution from sterilized chitosan films ([1]; 48 hours) | elution from sterilized chitosan films ([1]; 72 hours) | effect of a co-loaded antibiotic on release from chitosan sponge [3] | inhibition of S. aureus growth by film eluates [4] | also measured |
| --- | --- | --- | --- | --- | --- | --- | --- | --- | --- |
| NCC[C@H](O)C(=O)N[C@@H]1C[C@H](N)[C@@H](O[C@H]2O[C@H](CN)[C@@H](O)[C@H](O)[C@H]2O)[C@H](O)[C@H]1O[C@H]1O[C@H](CO)[C@@H](O)[C@H](N)[C@H]1O [amikacin] | 50.63 ± 4.49 µg/mL | 2.15 ± 1.13 µg/mL | 3.17 ± 1.14 µg/mL | 3.93 ± 0.57 µg/mL | 4.7 ± 2.49 µg/mL | 0.6 ± 0.48 µg/mL | vancomycin nor daptomycin affected the release of amikacin | – | 12 hr TDx reading, antibiotic elution from remaining sponge fragments, Mean ([2]; goat, 12 h): 0.60 µg/mL/g; concentration at 6 h (in vivo): 526 ± 478 ng/mL; concentration at 12 h (in vivo): 200 ng/mL; concentration at 24 h (in vivo): 200 ng/mL; concentration at 36 h (in vivo): 200 ng/mL; concentration at 42 h (in vivo): 200 ng/mL; Bacterial growth inhibition of P. aeruginosa (Pseudomonas aeruginosa; after 72 hours): 93.1%; Bacterial growth inhibition of P. aeruginosa (Pseudomonas aeruginosa; after one hour): 98.7% |
| CCCCCCCCCC(=O)N[C@@H](Cc1c[nH]c2ccccc12)C(=O)N[C@H](CC(N)=O)C(=O)N[C@@H](CC(=O)O)C(=O)N[C@@H]1C(=O)NCC(=O)N[C@@H](CCCN)C(=O)N[C@@H](CC(=O)O)C(=O)N[C@H](C)C(=O)N[C@@H](CC(=O)O)C(=O)NCC(=O)N[C@H](CO)C(=O)N[C@@H]([C@H](C)CC(=O)O)C(=O)N[C@@H](CC(=O)c2ccccc2N)C(=O)O[C@@H]1C [daptomycin] | – | – | – | – | – | – | Amikacin did not affect the release of daptomycin | active in inhibiting the growth of S. aureus | release from chitosan sponge compared with the other tested antibiotics ([3]; 72 hour time point, sponges hydrated with 5 mg/ml, one antibiotic per sponge): significantly less than the other two tested antibiotics |
| CN[C@H](CC(C)C)C(=O)N[C@H]1C(=O)N[C@@H](CC(N)=O)C(=O)N[C@H]2C(=O)N[C@H]3C(=O)N[C@H](C(=O)N[C@H](C(=O)O)c4cc(O)cc(O)c4-c4cc3ccc4O)[C@H](O)c3ccc(c(Cl)c3)Oc3cc2cc(c3O[C@@H]2O[C@H](CO)[C@@H](O)[C@H](O)[C@H]2O[C@H]2C[C@](C)(N)[C@H](O)[C@H](C)O2)Oc2ccc(cc2Cl)[C@H]1O [vancomycin] | 83.45 ± 17.25 µg/mL | 19.35 ± 7.98 µg/mL | 0.58 ± 0.88 µg/mL | 2.53 ± 0.66 µg/mL | 9.72 ± 1.92 µg/mL | 6.13 ± 0.39 µg/mL | amikacin did not affect the release of vancomycin | active in inhibiting the growth of S. aureus | 12 hr TDx reading, antibiotic elution from remaining sponge fragments, Mean ([2]; mean of 4 goats, fragments retrieved after 42 hours in vivo, 20 ml sterile saline, 37° C., 12 hours): 3.78 µg/mL/g; concentration at 6 h (in vivo; [5]): 1630 ± 646 ng/mL; concentration at 12 h (in vivo; [5]): 703 ± 348 ng/mL; concentration at 24 h (in vivo; [5]): 845 ± 539 ng/mL; concentration at 36 h (in vivo; [5]): 740 ± 477 ng/mL; concentration at 42 h (in vivo; [5]): 275 ± 70 ng/mL |
